The species named for assay [1] is Cavia porcellus. Put plainly: Negative log concentration effecting 50% blockade of isoproterenol-induced rate responses in vitro in guinea pig right atria. Format: functional. Particulars: read-out: pA2 (converted).
Assay [2] is filed under the species Cavia porcellus. Description: Inhibition of isoproterenol-induced responses in guinea pig trachea. Format: functional. As to conditions: read-out: pA2 (converted).
For assay [3], the species on record is Cavia porcellus. Put plainly: Cardioselectivity determined (Antilog [pA2 (atria) - pA2 (trachea)] ).
Assay [4] relates to Canis lupus familiaris. Put plainly: Time for 80% recovery from 50% blockade levels after 3-h infusions of drug(in vivo).
In assay [5] the test system is Cavia porcellus. Description: Less than 80% recovery from 50% blockade levels after 3-h infusions of drug(in vivo).
The species entered for assay [6] is Cavia porcellus. Description: No blockade was observed at 10 e-6 M in guinea pig right atria (In vitro). Format: functional. Particulars: read-out: pA2 (converted).

SMILES strings stand for the structures.

Take `COC(=O)c1ccccc1OCC(O)CN=C1CCN(C=O)CC1` (configuration not stated): the Kb in assay [1] was above 1000 nM.

On to `COC(=O)c1ccccc1OCC(O)CNC(C)(C)CNC(N)=O` (configuration not stated), for which the Kb in assay [1] is 1.26 nM; in assay [2], 3.16 nM. Besides, the Selectivity in assay [3] was 2.5. Besides, the Duration in assay [4] was above 60 min.

Consider `CCOC(=O)c1ccccc1OCC(O)CNCCNC(=O)C(C)C` (configuration not stated), for which the Kb in assay [1] was 3.16 nM; in assay [2] it was 20 nM. Further, the Selectivity in assay [3] was 6.3. In addition, in assay [4], the Duration was determined as 40 min.

With `CC(C)NCC(O)COc1cccc2ccccc12` (configuration not stated) [PROPRANOLOL], the Duration in assay [5] is reported as above 60 min.

`COC(=O)c1ccccc1OCC(O)CNCCNS(=O)(=O)c1ccc(C)cc1` (configuration not stated): the Kb in assay [1] was 158 nM; in assay [2], 79.4 nM.

As to `COC(=O)c1ccccc1OCC(O)CNC(C)(C)C` (configuration not stated), the Duration in assay [4] came to 22 min.

As for `COC(=O)c1ccccc1OCC(O)CNC(C)(C)CNC(=O)N1CCOCC1` (configuration not stated), the Kb in assay [1] is 0.2 nM; in assay [2] it was 1 nM. Besides, the Selectivity in assay [3] is 5. In assay [5], this compound returned a Duration above 60 min.

`COC(=O)c1ccccc1OCC(O)CNCCNS(=O)(=O)N(C)C` (configuration not stated): the Kb is 31.6 nM in assay [1] and 50.1 nM in assay [2]. The compound further displayed a Duration in assay [4] of 15 min.

`COC(=O)c1ccccc1OCC(O)CNCCNc1cc(Cl)c2ccccc2c1O` (configuration not stated): the Kb in assay [1] was 631 nM.

For `COC(=O)c1ccc(OCC(O)CNCCN2CCCC2)cc1` (configuration not stated), in assay [6], the Kb is above 1000 nM.

For the compound `COC(=O)c1ccccc1OCC(O)CNC(C)(C)CNS(=O)(=O)c1ccccc1` (configuration not stated), the Kb in assay [2] is 1.58 nM.

As for `COC(=O)c1ccccc1OCC(O)CNCCNC(=O)C(C)C` (configuration not stated), the Kb in assay [1] is 7.94 nM; in assay [2], 31.6 nM. This compound also registered a Selectivity in assay [3] of 4. In assay [4], this compound showed a Duration of 17 min.

On to `COC(=O)c1ccccc1OCC(O)CNC(C)C` (configuration not stated), for which the Kb in assay [1] is 5.01 nM; in assay [2], 12.6 nM. In assay [3], this compound displayed a Selectivity of 2.5. For the same compound, the Duration in assay [4] was found to be 15 min.

Turning to `COC(=O)c1ccc(OCC(O)CNCCN2CCCCC2)cc1` (configuration not stated), the Kb in assay [6] was above 1000 nM.

In the case of `COC(=O)c1ccccc1OCC(O)CNCCNC(=O)Cc1ccccc1` (configuration not stated), the Kb was 5.01 nM in assay [1] and 20 nM in assay [2]. Moreover, the Selectivity in assay [3] is recorded as 4. In assay [4], this compound had a Duration of 42 min.

As for `COC(=O)c1ccccc1OCC(O)CNCc1nc2ccccc2[nH]1` (configuration not stated), the Kb in assay [1] was 316 nM.

On to `COC(=O)c1ccccc1OCC(O)CNCCNC(C)=O` (configuration not stated), for which the Kb is 50.1 nM in assay [1] and 100 nM in assay [2]. In assay [3], this compound returned a Selectivity of 2. The compound further yielded a Duration in assay [4] of 18 min.

Consider `COC(=O)c1ccccc1OCC(O)CNCCc1ccc(OC)c(OC)c1` (configuration not stated), for which the Kb in assay [2] is 79.4 nM. The compound also gave a Duration in assay [4] of 30 min.

For the compound `COC(=O)c1ccc(OCC(O)CNC(C)C)cc1` (configuration not stated), in assay [2], the Kb is 3160 nM.

`CCOC(=O)N1CCC(=NCC(O)COc2ccccc2C(=O)OC)CC1` (configuration not stated): the Kb in assay [1] was above 1000 nM.

`Cc1ccccc1OCC(O)CNCCNC(=O)C(C)C` (configuration not stated): the Kb is 5.01 nM in assay [1] and 20 nM in assay [2]. Further, the Selectivity in assay [3] is 4. This compound showed a Duration in assay [5] above 60 min.

As to `COC(=O)c1ccccc1OCC(O)CNCCNC(=O)Nc1ccccc1` (configuration not stated), the results for the Kb in assay [1] and in assay [2] were 7.94 nM and 200 nM, respectively. This compound also gave a Selectivity in assay [3] of 25.1. In addition, the Duration in assay [5] was above 60 min.

Regarding `COC(=O)CCc1ccccc1OCC(O)CNCCNC(=O)C(C)C` (configuration not stated), the Kb in assay [1] is 25.1 nM; in assay [2], 20 nM. The Duration in assay [5] is reported as above 60 min.

In the case of `CCOC(=O)c1ccccc1OCC(O)CNC(C)(C)CNC(N)=O` (configuration not stated), the Kb in assay [1] was 0.126 nM; in assay [2] it was 0.501 nM. In assay [3], the Selectivity is reported as 4. The compound further displayed a Duration in assay [5] above 60 min.

Take `Cc1ccccc1OCC(O)CNC(C)C` (configuration not stated): the Kb in assay [1] is 2.51 nM; in assay [2] it was 6.31 nM. Also, the Selectivity in assay [3] is listed as 2.5. In addition, in assay [5], the Duration was above 60 min.

Regarding `COC(=O)c1ccccc1OCC(O)CNCCNc1ccc([N+](=O)[O-])cn1` (configuration not stated), the values for the Kb in assay [1] and in assay [2] were 31.6 nM and 79.4 nM, respectively. Also, the Selectivity in assay [3] was 2.5. Besides, the Duration in assay [4] was 15 min.

For `CCOC(=O)NCC(C)(C)NCC(O)COc1ccccc1C(=O)OC` (configuration not stated), the values for the Kb in assay [1] and in assay [2] were 2.51 nM and 6.31 nM, respectively. For the same compound, in assay [3], the Selectivity is 2.5. The compound also came in with a Duration in assay [4] of 30 min.

In the case of `COC(=O)c1ccc(OCC(O)CNCCN2CCOCC2)cc1` (configuration not stated), in assay [6], the Kb is above 1000 nM.

As for `COC(=O)/C=C/c1ccccc1OCC(O)CNCCNC(=O)C(C)C` (configuration not stated), the results for the Kb in assay [1] and in assay [2] were 0.398 nM and 0.794 nM, respectively. The same compound registered a Selectivity in assay [3] of 2. This compound also yielded a Duration in assay [5] above 60 min.

For the origin of these results see ChEMBL document CHEMBL1122495, “Ultra-short-acting beta-adrenergic receptor blocking agents. 3. Ethylenediamine derivatives of (aryloxy)propanolamines having esters on the aryl function” (J Med Chem, 1983).
